Here are results for four compounds from article PMC9258070, “Establishment and evaluation of glucose-modified nanocomposite liposomes for the treatment of cerebral malaria” (Journal of Nanobiotechnology, 2022).

The nature of series [1]: Pharmacokinetic study in plasma (LC-MS). Conditions: C57BL/6, mouse. On the procedure: (§1) The C57BL/6 mouse cerebral malaria model was established according to the method of “In vivo antimalarial experiment”. The model mice were randomly divided into the intranasal administration group (na-ATS/TMP@lipoBX) and tail vein injection group (iv-ATS/TMP@lipoBX). The dosage of each administration group was artesunate (ATS) 15.6 mg/kg and tetramethylpyrazine hydrochloride (TMP) 20.8 mg/kg.
Blood samples were collected at 5 min, 10 min, 15 min, 30 min, 45 min, 1 h, 2 h, 4 h, 8 h, 12 h and 24 h after administration. These samples were immediately placed in a tube containing heparin sodium (1000 U/mL). Plasma samples were obtained after centrifugation at 4000 rpm for 10 min and an esterase inhibitor was added to the samples. Subsequently, methanol was added to the plasma in the ratio of 1:2 (plasma-methanol) and centrifuged at 14,000 rpm for 5 min to obtain liquid supernatant for quantitative analysis by LC–MS.
(§2) LC conditions were as follows: column: Waters UPLC BEH C18 column (1.7 μm, 2.1 mm × 50 mm); mobile phase: water (0.1% formic acid and 5 mM ammonium formate)-acetonitrile (85:15, v/v), flow rate: 0.3 ml/min; column temperature: 35 ℃. Mass spectrum conditions were as follows: electric spray ion source (ESI); multiple response monitoring (MRM) mode; positive ion scanning mode; air curtain pressure (N2) was 40 psi, impact air pressure (N2) was 9 psi, atomization gas pressure (N2) was 55 psi, auxiliary gas pressure (N2) was 55 psi; spray voltage was 5500 V; atomization temperature was 550 ℃.

Series [2] is described as follows: Brain biodistribution study (LC-MS). To be noted: C57BL/6, mouse. On the procedure: as §1
Mice were euthanized and the brains were dissected. The brain samples were homogenized by adding 4 times their weight of physiological saline to prepare a tissue homogenate. The brain homogenates were processed according to the processing method for the plasma sample, and LC–MS quantitative analysis was carried out.
as §2

The nature of series [3]: Solubility of the conjugate (description). It is filed as physicochemical.

Counter-ions that a name gives are not always drawn.

Take `C[C@H]1[C@H](OC(=O)CCC(=O)O)O[C@@H]2O[C@@]3(C)CC[C@H]4[C@H](C)CC[C@@H]1[C@@]24OO3` [ATS, artesunate]: the bioavailability in series [1] (in vivo) was around 91%; in series [2] (brain, other: intranasal), around 415%. In addition, the time to peak (Tmax) in series [1] (plasma, inhaled or intranasal) worked out at 144 ± 225 min; in series [1] (plasma, iv), 17.5 ± 18.5 min; in series [2] (brain, inhaled or intranasal), 210 ± 60 min; in series [2] (brain, iv) it was 495 ± 311 min.

For the compound `Cc1nc(C)c(C)nc1C` [TMP, tetramethylpyrazine hydrochloride], the bioavailability in series [1] (in vivo) was around 97%; in series [2] (in vivo), around 183%. The time of peak concentration (Tmax) in series [1] (in vivo, inhaled or intranasal) is 4.98 min; in series [1] (in vivo, iv) it was 6.24 ± 2.52 min; in series [2] (in vivo, inhaled or intranasal), 4.98 min; in series [2] (in vivo, iv), 4.98 min.

Take `C[C@H]1[C@@H](O)O[C@@H]2O[C@@]3(C)CC[C@H]4[C@H](C)CC[C@@H]1[C@@]24OO3` [DHA, dihydroartemisinin]: the Tmax in series [2] (brain, inhaled or intranasal) is 23.8 ± 17 min; in series [2] (brain, iv), 7.5 ± 2.88 min. Also, the bioavailability in series [2] (brain, other: intranasal) was around 449%.

With `CC(C)CCCC(C)C1CCC2C3CC=C4CC(OC(=O)CCCCCCCCCCOc5ccc(OC6OC(CO)C(O)C(O)C6O)cc5)CCC4(C)C3CCC12C` (stereo not shown) [cholesterol-undecanoate-glucose conjugate], in series [3], the solubility result was “soluble in ethanol and tetrahydrofuran”.
